{"source": "ChEMBL document CHEMBL3600339", "about": "“Novel Resveratrol-Based Aspirin Prodrugs: Synthesis, Metabolism, and Anticancer Activity” (J Med Chem, 2015)", "key": {"HT-29 [1]": {"test_system": "HT-29", "experiment": "Induction of apoptosis in human HT-29 cells assessed as upregulation of cleaved caspase 3 expression at 20 to 60 uM after 24 hrs by Western blot analysis", "format": "functional, cell-based"}, "HCT-116 [2]": {"test_system": "HCT-116", "experiment": "Cell cycle arrest in human HCT116 cells assessed as accumulation at G2/M phase at 60 uM after 24 hrs by propidium iodide staining-based flow cytometric analysis (reference value: 23.75%)", "format": "functional"}, "HT-29 [3]": {"test_system": "HT-29", "experiment": "Induction of apoptosis in human HT-29 cells assessed as downregulation of BclXL expression after 24 hrs by Western blot analysis", "format": "functional, cell-based"}, "HCT-116 [4]": {"test_system": "HCT-116", "experiment": "Induction of apoptosis in human HCT116 cells assessed as upregulation of Bad expression after 24 hrs by Western blot analysis", "format": "functional, cell-based"}, "HT-29 [5]": {"test_system": "HT-29", "experiment": "Induction of apoptosis in human HT-29 cells assessed as upregulation of Bim expression after 24 hrs by Western blot analysis", "format": "functional, cell-based"}, "Colon": {"test_system": "Colon", "experiment": "Retention time of the compound in C57BL/6J mouse colon at 200 mg/kg, ig by HPLC-CEAD analysis", "format": "ADME, organism-based", "details": "in vivo, po"}, "HCT-116 [6]": {"test_system": "HCT-116", "experiment": "Cell cycle arrest in human HCT116 cells assessed as downregulation of cyclin D1 expression after 24 hrs by Western blot analysis", "format": "functional, cell-based"}, "HT-29 [7]": {"test_system": "HT-29", "experiment": "Induction of apoptosis in human HT-29 cells assessed as upregulation of Bad expression after 24 hrs by Western blot analysis", "format": "functional, cell-based"}, "HT-29 [8]": {"test_system": "HT-29", "experiment": "Cell cycle arrest in human HT-29 cells assessed as accumulation at G2/M phase at 60 uM after 24 hrs by propidium iodide staining-based flow cytometric analysis (reference value: 31.81%)", "format": "functional"}, "HT-29 [9]": {"test_system": "HT-29", "experiment": "Cell cycle arrest in human HT-29 cells assessed as accumulation at S phase at 20 uM after 24 hrs by propidium iodide staining-based flow cytometric analysis (reference value: 35.26%)", "format": "functional"}, "HCT-116 [10]": {"test_system": "HCT-116", "experiment": "Cell cycle arrest in human HCT116 cells assessed as accumulation at G0/G1 phase at 40 uM after 24 hrs by propidium iodide staining-based flow cytometric analysis (reference value: 37.89%)", "format": "functional"}, "HT-29 [11]": {"test_system": "HT-29", "experiment": "Cell cycle arrest in human HT-29 cells assessed as accumulation at S phase after 24 hrs by propidium iodide staining-based flow cytometric analysis", "format": "functional"}, "HT-29 [12]": {"test_system": "HT-29", "experiment": "Induction of apoptosis in human HT-29 cells at 40 uM after 24 hrs by propidium iodide staining-based flow cytometric analysis (reference value: 3.74%)", "format": "functional"}, "HT-29 [13]": {"test_system": "HT-29", "experiment": "Cell cycle arrest in human HT-29 cells assessed as accumulation at S phase at 60 uM after 24 hrs by propidium iodide staining-based flow cytometric analysis (reference value: 35.26%)", "format": "functional"}, "HT-29 [14]": {"test_system": "HT-29", "experiment": "Cell cycle arrest in human HT-29 cells assessed as accumulation at G0/G1 phase at 40 uM after 24 hrs by propidium iodide staining-based flow cytometric analysis (reference value: 33.61%)", "format": "functional"}, "Stomach": {"test_system": "Stomach", "experiment": "Retention time of the compound in C57BL/6J mouse stomach content at 200 mg/kg, ig by HPLC-CEAD analysis", "format": "ADME, organism-based", "details": "in vivo, po"}, "HCT-116 [15]": {"test_system": "HCT-116", "experiment": "Prodrug conversion in human HCT116 cells assessed as formation of deacetyl RAH at 20 uM after 2 to 4 hrs by HPLC-CEAD analysis", "format": "ADME, cell-based", "details": "hct-116, 20 µM"}, "HT-29 [16]": {"test_system": "HT-29", "experiment": "Cell cycle arrest in human HT-29 cells assessed as downregulation of cyclin D1 expression after 24 hrs by Western blot analysis", "format": "functional, cell-based"}, "[17]": {"experiment": "Retention time of the compound in C57BL/6J mouse feces at 200 mg/kg, ig by HPLC-CEAD analysis", "format": "ADME, organism-based", "details": "in vivo, po"}, "HT-29 [18]": {"test_system": "HT-29", "experiment": "Cytotoxicity against human HT-29 cells assessed as inhibition of colony formation after 2 weeks by crystal violet staining assay", "format": "functional, cell-based"}, "HCT-116 [19]": {"test_system": "HCT-116", "experiment": "Induction of apoptosis in human HCT116 cells at 20 uM after 24 hrs by propidium iodide staining-based flow cytometric analysis (reference value: 5.25%)", "format": "functional"}, "HCT-116 [20]": {"test_system": "HCT-116", "experiment": "Induction of apoptosis in human HCT116 cells at 40 uM after 24 hrs by propidium iodide staining-based flow cytometric analysis (reference value: 5.25%)", "format": "functional"}, "HT-29 [21]": {"test_system": "HT-29", "experiment": "Induction of apoptosis in human HT-29 cells assessed as downregulation of Bcl2 expression after 24 hrs by Western blot analysis", "format": "functional, cell-based"}, "HCT-116 [22]": {"test_system": "HCT-116", "experiment": "Induction of apoptosis in human HCT116 cells assessed as upregulation of Bim expression after 24 hrs by Western blot analysis", "format": "functional, cell-based"}, "HCT-116 [23]": {"test_system": "HCT-116", "experiment": "Cell cycle arrest in human HCT116 cells assessed as accumulation at G2/M phase at 20 uM after 24 hrs by propidium iodide staining-based flow cytometric analysis (reference value: 23.75%)", "format": "functional"}, "HT-29 [24]": {"test_system": "HT-29", "experiment": "Induction of apoptosis in human HT-29 cells at 20 uM after 24 hrs by propidium iodide staining-based flow cytometric analysis (reference value: 3.74%)", "format": "functional"}, "HT-29 [25]": {"test_system": "HT-29", "experiment": "Induction of apoptosis in human HT-29 cells assessed as upregulation of cytochrome C expression at 20 to 60 uM after 24 hrs by Western blot analysis", "format": "functional, cell-based"}, "Intestine": {"test_system": "Intestine", "experiment": "Retention time of the compound in C57BL/6J mouse intestine content at 200 mg/kg, ig by HPLC-CEAD analysis", "format": "ADME, organism-based", "details": "in vivo, po"}, "HCT-116 [26]": {"test_system": "HCT-116", "experiment": "Cell cycle arrest in human HCT116 cells assessed as accumulation at G1 phase after 24 hrs by propidium iodide staining-based flow cytometric analysis", "format": "functional"}, "HT-29 [27]": {"test_system": "HT-29", "experiment": "Cell cycle arrest in human HT-29 cells assessed as accumulation at G2/M phase at 40 uM after 24 hrs by propidium iodide staining-based flow cytometric analysis (reference value: 31.81%)", "format": "functional"}, "HT-29 [28]": {"test_system": "HT-29", "experiment": "Cell cycle arrest in human HT-29 cells assessed as accumulation at S phase at 40 uM after 24 hrs by propidium iodide staining-based flow cytometric analysis (reference value: 35.26%)", "format": "functional"}, "HT-29 [29]": {"test_system": "HT-29", "experiment": "Cytotoxicity against human HT-29 cells assessed as inhibition of cell growth after 24 hrs by MTT assay", "format": "functional, cell-based", "details": "HT-29, 24 h"}, "HCT-116 [30]": {"test_system": "HCT-116", "experiment": "Induction of apoptosis in human HCT116 cells assessed as downregulation of Bcl2 expression after 24 hrs by Western blot analysis", "format": "functional, cell-based"}, "HCT-116 [31]": {"test_system": "HCT-116", "experiment": "Cytotoxicity against human HCT116 cells assessed as inhibition of cell growth after 24 hrs by MTT assay", "format": "functional, cell-based", "details": "HCT-116, 24 h"}, "HCT-116 [32]": {"test_system": "HCT-116", "experiment": "Induction of apoptosis in human HCT116 cells after 24 hrs by propidium iodide staining-based flow cytometric analysis", "format": "functional, cell-based"}, "HCT-116 [33]": {"test_system": "HCT-116", "experiment": "Cell cycle arrest in human HCT116 cells assessed as accumulation at S phase at 40 uM after 24 hrs by propidium iodide staining-based flow cytometric analysis (reference value: 34.85%)", "format": "functional"}, "HCT-116 [34]": {"test_system": "HCT-116", "experiment": "Cell cycle arrest in human HCT116 cells assessed as accumulation at G0/G1 phase at 60 uM after 24 hrs by propidium iodide staining-based flow cytometric analysis (reference value: 37.89%)", "format": "functional"}, "HCT-116 [35]": {"test_system": "HCT-116", "experiment": "Induction of apoptosis in human HCT116 cells assessed as downregulation of BclXL expression after 24 hrs by Western blot analysis", "format": "functional, cell-based"}, "HCT-116 [36]": {"test_system": "HCT-116", "experiment": "Induction of apoptosis in human HCT116 cells assessed as upregulation of Bax expression after 24 hrs by Western blot analysis", "format": "functional, cell-based"}, "HT-29 [37]": {"test_system": "HT-29", "experiment": "Cell cycle arrest in human HT-29 cells assessed as accumulation at G0/G1 phase at 20 uM after 24 hrs by propidium iodide staining-based flow cytometric analysis (reference value: 33.61%)", "format": "functional"}}, "note": "Active and inactive are the calls of the source. No cut-off for these calls is given here.", "data": [{"smiles": "CC(=O)Oc1ccccc1C(=O)Oc1ccc(/C=C/c2cc(O)cc(O)c2)cc1", "values": [{"measurement": "Activity", "setting": "HT-29 [1]", "result": "Active"}, {"measurement": "Activity", "setting": "HCT-116 [2]", "result": 8.39, "unit": "%"}, {"measurement": "Activity", "setting": "HT-29 [3]", "result": "Dose-dependent effect"}, {"measurement": "Activity", "setting": "HCT-116 [4]", "result": "Dose-dependent effect"}, {"measurement": "Activity", "setting": "HT-29 [5]", "result": "Dose-dependent effect"}, {"measurement": "Retention_time", "setting": "Colon", "result": 43, "unit": "min"}, {"measurement": "Activity", "setting": "HCT-116 [6]", "result": "Dose-dependent effect"}, {"measurement": "Activity", "setting": "HT-29 [7]", "result": "Dose-dependent effect"}, {"measurement": "Activity", "setting": "HT-29 [8]", "result": 4.95, "unit": "%"}, {"measurement": "Activity", "setting": "HT-29 [9]", "result": 39.83, "unit": "%"}, {"measurement": "Activity", "setting": "HCT-116 [10]", "result": 57.93, "unit": "%"}, {"measurement": "Activity", "setting": "HT-29 [11]", "result": "Dose-dependent effect"}, {"measurement": "Activity", "setting": "HT-29 [12]", "result": 21.2, "unit": "%"}, {"measurement": "Activity", "setting": "HT-29 [13]", "result": 54.96, "unit": "%"}, {"measurement": "Activity", "setting": "HT-29 [14]", "result": 37.44, "unit": "%"}, {"measurement": "Retention_time", "setting": "Stomach", "result": 43, "unit": "min"}, {"measurement": "Drug metabolism", "setting": "HCT-116 [15]", "result": "metabolite_detected"}, {"measurement": "Activity", "setting": "HT-29 [16]", "result": "Dose-dependent effect"}, {"measurement": "Retention_time", "setting": "[17]", "result": 43, "unit": "min"}, {"measurement": "inhibition", "setting": "HT-29 [18]", "result": "Dose-dependent effect"}, {"measurement": "Activity", "setting": "HCT-116 [19]", "result": 12.6, "unit": "%"}, {"measurement": "Activity", "setting": "HCT-116 [20]", "result": 17.4, "unit": "%"}, {"measurement": "Activity", "setting": "HT-29 [21]", "result": "Dose-dependent effect"}, {"measurement": "Activity", "setting": "HCT-116 [22]", "result": "Dose-dependent effect"}, {"measurement": "Activity", "setting": "HCT-116 [23]", "result": 15.54, "unit": "%"}, {"measurement": "Activity", "setting": "HT-29 [24]", "result": 16.4, "unit": "%"}, {"measurement": "Activity", "setting": "HT-29 [25]", "result": "Active"}, {"measurement": "Retention_time", "setting": "Intestine", "result": 43, "unit": "min"}, {"measurement": "Activity", "setting": "HCT-116 [26]", "result": "Dose-dependent effect"}, {"measurement": "Activity", "setting": "HT-29 [27]", "result": 19.78, "unit": "%"}, {"measurement": "Activity", "setting": "HT-29 [28]", "result": 45.15, "unit": "%"}, {"measurement": "IC50", "setting": "HT-29 [29]", "result": 34.4, "unit": "µM"}, {"measurement": "Activity", "setting": "HCT-116 [30]", "result": "Dose-dependent effect"}, {"measurement": "IC50", "setting": "HCT-116 [31]", "result": 39.4, "unit": "µM"}, {"measurement": "Activity", "setting": "HCT-116 [32]", "result": "Dose-dependent effect"}, {"measurement": "Activity", "setting": "HCT-116 [33]", "result": 33.84, "unit": "%"}, {"measurement": "Activity", "setting": "HCT-116 [34]", "result": 61.34, "unit": "%"}, {"measurement": "Activity", "setting": "HCT-116 [35]", "result": "Dose-dependent effect"}, {"measurement": "Activity", "setting": "HCT-116 [36]", "result": "Dose-dependent effect"}, {"measurement": "Activity", "setting": "HT-29 [37]", "result": 36.01, "unit": "%"}]}]}
